The values below come from patent publication US12568963B2, “Compounds and compositions for nematode treatment” (IOWA STATE UNIVERSITY RESEARCH FOUNDATION, INC., priority 2020, dated 2026).

For one data set, the system named is SCN. To be noted: for SCN Population Densities 34 DAP / SCN Population Densities 64 DAP / SCN Population Densities harvest / Biomass at harvest, total / Biomass at harvest, seed: susceptible soybean; for SCN Population Densities 34 DAP: 34 days after planting; for SCN Population Densities 64 DAP: 64 days after planting; for Biomass at harvest, total: dry weight of all plants per microplot; for Biomass at harvest, seed: seed weight per microplot. The text has this: Microplots were constructed by inserting 1-m-diameter by 0.25-m-tall circles of plastic drainage pipe into the soil in a field on a university-owned research farm located 10 km (6 miles) due west of Ames, IA. The field was not infested with SCN prior to being infested for the experiment.
The soil in the top 20 cm of each microplot was loosened, turned over, and artificially infested with approximately 570,000 SCN eggs contained within cysts in 1 liter of soil from greenhouse cultures. The SCN inoculum was applied in a band across the middle of the microplot (FIG. 5A), then 1.65 L of treatment solution were applied over the infested soil. […] Two different control treatments consisted of microplots receiving 1.65 L of autoclaved, deionized water and microplots receiving 1.65 L of the solvent used to dilute the compounds. The SCN-infested soil inoculum and applied liquid treatment were rototilled into the soil in each microplot, then 40 seeds of the SCN-susceptible variety “Williams 82” were planted in a single, central row within each microplot (FIG. 5B). Similarly, seeds of the SCN-resistant variety “Jack” were planted in microplots infested with SCN inoculum and treated with water as a third control treatment. There were four replications of each of the six treatments arranged in a randomized complete block design. Microplots were spaced 1 m apart in rows separated by 3 m to avoid cross contamination among microplots (FIG. 5F). Plants were grown for the entire 2020 growing season (FIGS. 5C through 5H).
The total number of plants growing in each microplot were counted (i.e., a “stand count”) 34 days after planting. A total of five soil cores, 2 cm in diameter and 15 to 20 cm deep, were collected from the root zone on either side of the row of soybean plants in each microplot 34 days after planting, 64 days after planting, and when the plants were removed from the microplots to determine the SCN population densities. SCN requires approximately 30 days to complete a single generation. […] SCN cysts (dead females full of eggs) were extracted from the soil samples using a wet sieving method, and eggs were released from the recovered cysts by crushing cysts with a motorized rubber stopper. Recovered eggs were stained with acid fuchsin and counted under a microscope to determine their number per 100 cm^3 of soil.
The stems of soybean plants in each microplot were cut at the soil line, and all plants from each microplot were placed in large paper bags and stored in an unheated shed until they were further processed. The dry weight of all plants in each microplot was determined (total plant biomass at harvest), and then all plants from each microplot were fed through a plot combine to collect and weigh the seeds (seed biomass).

The subject of another data set is SCN eggs. Nature of the data set: SCN hatching assay (continuous and short-term exposure). As to conditions: in vivo.
Data set [1] in a line: Solubility in the solvent system / water. In kind it is physicochemical. As to the method:
Several tested compounds were obtained commercially while others were synthesized from simple starting materials (see Example 1, supra). Compounds were dissolved in a solvent containing 0.08% ethanol, 0.08% TRITON™ X-100, and nano-purified water and were tested at 10 and 100 ppm.
Almost all compounds were tested at 100 ppm, provided they were sufficiently soluble in the solvent system at this concentration.

For another data set, the system named is M. incognita. The experiment in a line: RKN quick sand assay (cucumber root galling). The format is in vivo. As to conditions: 15 days after infestation with 2,000 M. incognita eggs; abamectin 100 ppm drench; solvent control 24%. On the procedure: Deionized water, 100 ppm abamectin, and solvent were used as controls. […] To date, compounds were tested in three different experimental runs, with some compounds being tested twice and others once. A beta regression model was used to estimate the percent of galling for each treatment in each run. As with the hatching data analyses, a test of marginal means was performed to determine the estimated percent of galling in each treatment over all runs.

“And” between values parts separate entries of the source, which are not always exact repeats. Identical values can stand only once. Like-named read-outs stand apart in the source and are kept apart here. Marks after values point to notes of the source that are not given here.

Description for SCN eggs: Two similar assays ran synchronously. For both, approximately 300 eggs were pipetted onto 20 mm-diameter plastic microsieves and placed in a six-well plate and incubated at 25° C. in 3 mL of treatment (FIG. 1A). In a continuous exposure assay, eggs (FIG. 1B) were incubated in treatments for 15 days, and in a short-term exposure assay, eggs were incubated in treatments for one day, rinsed, then incubated in deionized water for 14 days. The number of hatched second-stage juveniles (FIG. 1B) was determined for both assays after 3, 6, 9, 12, and 15 days when the microsieves containing the eggs were moved to an empty well and fresh treatment solution was added. […] Compounds were tested over twelve different experimental runs in total, with some tested three times, others twice, and some once.
The number of hatched and unhatched juveniles of SCN in each treatment were subjected to an analysis with a quasibinomial generalized linear model to estimate the percent hatching for each treatment in each individual experimental run. Then, a test of marginal means was done to determine the estimated percent hatching in each treatment over all runs. […] Analysis were performed on four different treatment groups: continuous 100 ppm, short term 100 ppm, continuous 10 ppm, and short term 10 ppm.
Because of the complexity of the experimental design and the large variation in hatch rates between different testing blocks, as well as the long duration over which testing has occurred, the statistical analysis is not straight-forward. First, within each block bi, the mean μi hatch rate (in percent) in the solvent control is calculated (in blocks with both short-term and continuous exposure, these two testing methods are analyzed independently). For each treatment hatch rate xj in block bi, a “hatching score” hij is the calculated as
The arcsine transformation is used to account for the fact that calculating the ratio of hatching is subject to non-linear effects. A general linear model is then used to account for additional block effects, and Dunnett's adjustment is used as the multiple comparison procedure to control the familywise error rate, as all treatments are compared to the solvent control. […] These controls were not used in the calculation of significance other than as controls common to each block in the unbalanced incomplete block design experiment.
The estimate column contains an estimate of the difference in hatch rate modulation between the solvent control and the treatment. This is estimated as a percentage hatch rate of the control. For reliability of the magnitude of the effect, more than one block is needed. Due to the high variation in solvent control hatch rates between blocks, some percentage modulations may fall outside the expected range (e.g., below −100%).
Due to the arctangent/tangent conversions, the standard errors of the mean (column SE) are very rough estimates of the standard error. However, the p value column contains the actual p-values.

`Cc1ccc(C=C[N+](=O)[O-])cc1` [4-M-BNS, 4-methyl beta-nitrostyrene]: in the data set on SCN (100 ppm solution), the “SCN Population Densities 34 DAP” value was 5,800 # eggs per 100 cm^3 soil; the “SCN Population Densities 64 DAP” value is on record as 7,400 # eggs per 100 cm^3 soil; the “Biomass at harvest, total” value was 654 g; the “Biomass at harvest, seed” value came out at 322 g. The “SCN Population Densities harvest” value with SCN (100 ppm solution, at harvest) is reported as 9,800 # eggs per 100 cm^3 soil. Besides, in the data set with SCN (in vivo), the “seed weights (analogous to grain yield) versus susceptible/water treatment” value was “significantly greater” and the “soil SCN egg population densities 64 days after planting versus susceptible/water treatment” value is reported as “significantly lower”.
As for `COc1cc(/C=C/C=O)ccc1O` [4H3MC], the “estimate (difference in hatch rate modulation between solvent control and treatment, as percentage hatch rate of the control)” value in the data set with SCN eggs is on record as −55.3%.
On to `C(=C\C1SCCS1)/c1ccccc1` [JSK3011], for which the solubility in water entry in data set [1] (not sufficiently soluble at 100 ppm in solvent system, only tested at 10 ppm) is given as “low solubility”.
`O=C(/C=C/c1ccc(Cl)cc1)C1CC1` [JSK3087, 4-Chlorostyryl Cyclopropyl Ketone]: the “soil SCN egg population densities 64 days after planting versus susceptible/water treatment” value in the data set on SCN (100 ppm solution, LSD alpha = 0.10) was “significantly lower”. In addition, in the data set on SCN (100 ppm solution), the “SCN Population Densities 34 DAP” value is 7,275 # eggs per 100 cm^3 soil; the “SCN Population Densities 64 DAP” value is on record as 4,700 # eggs per 100 cm^3 soil; the “Biomass at harvest, total” value is reported as 668 g; the “Biomass at harvest, seed” value is 327 g. Moreover, the “SCN Population Densities harvest” value in the data set with SCN (100 ppm solution, at harvest) is 6,400 # eggs per 100 cm^3 soil. Also, the “seed weights (analogous to grain yield) versus susceptible/water treatment” value in the data set on SCN (at harvest) is reported as “significantly greater”.
Regarding `O=CC(Br)=Cc1ccccc1` [a-bromocinnamaldehyde], the solubility in water entry in data set [1] is “low solubility”.
On to `N#CC=Cc1ccccc1` [cinnamonitrile], for which, in the data set with SCN eggs, the “estimate (difference in hatch rate modulation between solvent control and treatment, as percentage hatch rate of the control)” value is recorded as −53.8%.
Consider `CC(=O)C=Cc1ccccc1` [methyl styryl ketone], for which the “estimate (difference in hatch rate modulation between solvent control and treatment, as percentage hatch rate of the control)” value with SCN eggs is −75.4% and −85%.
In the case of `O=S(=O)([O-])[O-].[Zn+2]` [zinc sulfate, reference compound], the “estimate (difference in hatch rate modulation between solvent control and treatment, as percentage hatch rate of the control)” value in the data set on SCN eggs is 54.7% and 54.9%.
In the case of abamectin, the “percentage galling of cucumber roots” value with M. incognita was 0%.
